Experimental data published in patent publication US20210220489A1, “AMYGDALAR NEURAL ENSEMBLE THAT ENCODES THE UNPL[…] PAIN” (The Board of Trustees of the Leland Stanford Junior …, priority 2020, published 2021).

Tested on: noci-TRAP^hM4 mice
Test: Reflexive and affective-motivational pain behaviors after chemogenetic inhibition of the BLA nociceptive ensemble
Type: in vivo
Conditions: CNO 10 mg/kg; mechanical and thermal noxious stimuli
Protocol: We habituated mice to a first testing room (room-A) for three consecutive days. Execution of all TRAP procedures occurred in Room-A. During these habituation days, no nociceptive stimuli were delivered, and no baseline thresholds were measured (i.e., mice were naïve to pain experience before the TRAP procedure). In room-A, we placed individual mice within red plastic cylinders (10.16-cm D), with a red lid, on a raised perforated, flat metal platform (60.96-cm H). […] This stimulus frequency was selected to closely match the protocols used in the microendoscope imaging experiments in which significant Ca^2+ transients were reliably detected in BLA Camk2a+ neurons. […]
To evaluate mechanical reflexive sensitivity, we used a logarithmically increasing set of 8 von Frey filaments (Stoelting), ranging in gram force from 0.07- to 6.0-g (93). […] Using the Up-Down statistical method, the 50% withdrawal mechanical threshold scores were calculated for each mouse and then averaged across the experimental groups. The response frequency was calculated as the number of positive responses out of 10 stimulations, delivered at 30-s intervals. […]

SMILES: C[N+]1([O-])CCN(C2=Nc3cc(Cl)ccc3Nc3ccccc32)CC1 [CNO, clozapine-N-oxide]
- attending and escape behaviors: significantly reduced
